Data set [1] has as its target T1, ICLPa (isocitrate lyase from P. aeruginosa) (Pseudomonas aeruginosa, UniProt Q9I0K4).
T1 construct: made in house
T1 sequence (Q9I0K4 1-531): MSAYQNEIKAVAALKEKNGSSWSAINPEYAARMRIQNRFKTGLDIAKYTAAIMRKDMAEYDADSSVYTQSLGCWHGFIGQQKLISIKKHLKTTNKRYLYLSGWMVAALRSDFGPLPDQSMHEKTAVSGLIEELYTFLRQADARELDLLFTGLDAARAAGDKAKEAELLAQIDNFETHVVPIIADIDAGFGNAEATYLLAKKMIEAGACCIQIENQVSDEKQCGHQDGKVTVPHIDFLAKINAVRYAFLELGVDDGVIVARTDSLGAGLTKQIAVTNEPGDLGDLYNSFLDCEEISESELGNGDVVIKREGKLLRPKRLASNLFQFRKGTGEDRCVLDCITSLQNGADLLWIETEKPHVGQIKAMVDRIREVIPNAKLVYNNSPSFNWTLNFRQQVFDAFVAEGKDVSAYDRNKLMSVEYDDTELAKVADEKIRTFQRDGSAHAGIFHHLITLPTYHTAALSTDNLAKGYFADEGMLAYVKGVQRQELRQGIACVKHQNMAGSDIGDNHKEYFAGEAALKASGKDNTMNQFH
Kind of data set: Inhibition of purified ICLPa enzymatic activity. It is filed as biochemical. As to conditions: for inhibition at 75 µM: 75 µM compound, read-out: Enzyme Inhibition (%) at 75 µM ICLPa; for IC50: purified enzyme, 170 nM ICL. How it is done: The enzymatic activity of purified ICLPa and MSPa was assayed essentially as previously described. Compounds were added to the reaction mixtures (minus substrates) and incubated for 5 min at 37 °C. The enzyme concentration in the reaction mixtures was 170 nM for ICL and 25 nM for MS (based on the concentration of the monomer in each case). […] The reactions were initiated by the addition of pH-adjusted substrates, and the initial rates were recorded as A324 nm (for ICLPa) and A412 nm (for MSPa) using a Biospectrometer (Eppendorf, Stevenage, UK). Substrate turnover was calculated from the molar extinction coefficient of the assay products: Glyoxylate-phenylhydrazone (16,800/M/cm) for ICLPa and 2-nitro-5-thiobenzoic acid (14,150/M/cm) for MSPa.
All data fitting was performed with GraphPad Prism version 7.04 (GraphPad Software, Inc., La Jolla, CA, USA). The solid lines are the result of fitting the data to the equations denoted in relevant experimental sections. IC50 values were determined by a nonlinear fit using the equation for sigmoidal dose-response with variable slope. In all graphs, unless otherwise stated, the data points are the mean of experimental triplicates, and all error bars correspond to ± standard deviation.

In a further data set the test system is P. aeruginosa PAO1. Kind of data set: Antibacterial growth assay (OD600, 18 h) in LB or M9-acetate. As to conditions: Pseudomonas aeruginosa; for inhibition at 200 µM: final optical density; for MIC: PAO1, MIC = lowest concentration inhibiting >75% of growth. Type of data set: cell-based. How it is done: Growth assays were carried out using clear, U-bottom, sterile 96-well plates (Thermo Fisher Scientific, Bishop’s Stortford, UK). P. aeruginosa PAO1 overnight cultures were diluted to a starting OD600 of 0.05 in LB medium or M9 medium supplemented with 0.5% acetate. The test compounds were added to the indicated final concentrations, and the plates were covered with gas-permeable adhesive seals (Scientific Laboratory Supplies, Nottingham, UK). Assay controls included 1% DMSO, a positive antibiotic control (ciprofloxacin, 1 µg/mL), and medium-only wells as a control for background absorbance. […]

For the next data set, the system named is CYP450 isozymes. Kind of data set: CYP450 inhibition in HLM, whole isozyme panel. It is filed as in vitro ADME, human. As to conditions: over the concentration range tested. How it is done:
(§1) The CYP450 inhibition was determined by measuring the reaction products of known CYP450 substrates (probes). Probe solutions were prepared by diluting stock solutions with buffer (100 mM Tris-HCl, pH 7.5, and 0.5 mM EDTA) to the final indicated concentrations (Figure 5), and adding 180 µL of pooled human liver microsomes (20 mg/mL) (BioIVT, West Sussex, UK). These probe solutions were dispensed (195 µL) into clear 96-well plates with low evaporation lids (Corning, Turin, Italy) and the plates were prewarmed to 37 °C in a thermomixer (Hamilton, Agrate Brianza, Italy). Next, 5 µL of the test compound or appropriate positive control (Table S4) were added to the wells and the plates were incubated for a further 5 min. Following this, the reactions were started by adding NADPH regenerating solution (50 µL, see previous Section 4.7) to each well. CYP450 mixtures containing phenacetin, rosiglitazone, mephenytoin, atorvastatin, and nifedipine probes were incubated for 10 min at 37 °C, whereas those with midazolam and diclofenac were incubated for 5 min at 37 °C. Aliquots (100 µL) from each reaction mixture were quenched in 200 µL acetonitrile, and the mixtures were sedimented at 3000 ×g for 10 min at 4 °C. The supernatants were diluted in water containing 5 ng/mL Rolipram as an internal standard for LC-MS/MS analysis. All incubations were carried out in triplicate.
(§2) Probe products were analyzed on an API4000 Qtrap mass spectrometer (Applied Biosystems/MDS SCIEX, Monza, Italy) coupled with an Acquity UPLC system (Waters, Milan, Italy) and a CTC-PAL auto-injector (CTC Analytics AG, Zwingen, Switzerland). […] The column temperature was maintained at 60 °C. The injected sample volume was 10 µL, and analytes were eluted at a flow rate of 800 µL/min in a gradient of eluent A (water with 0.1% formic acid) and eluent B (acetonitrile with 0.1% formic acid). […] The analytes were quantified in multiple reaction-monitoring mode. Data were processed, and the percentage control activity was calculated based on a comparison between the ratio of the sample peak area and the peak area.

The target in the next data set is T2, CYP2C9 (Homo sapiens, UniProt P11712).
T2 construct: pooled human liver microsomes; tissue BioIVT; host or cells: pooled human liver microsomes
Kind of data set: CYP450 inhibition in HLM, diclofenac probe. As to conditions: read-out: IC50 CYP450 2C9. It is filed as in vitro ADME. As to the method:
as §1, §2

The mark [2] stands for this setting: PAO1, LB medium, read-out: PAO1 Growth Inhibition (%) at 200 µM LB.
The mark [3] stands for this setting: PAO1, M9-acetate medium, read-out: PAO1 Growth Inhibition (%) at 200 µM M9ac.
The mark [4] stands for this setting: M9 medium with 0.5% acetate, read-out: MIC M9ac.

Converted amounts (≈) assume the structure as drawn. Read-outs that look alike come from different tables or passages of the source. Some results are limits rather than exact numbers.

As a reminder, the inhibition is how much of the control response was suppressed. By IC50 is commonly meant the concentration at which inhibition is half-maximal. For orientation: MIC means the smallest concentration in the dilution series that meets the test's criterion for growth inhibition.

T2 sequence (P11712 whole entry): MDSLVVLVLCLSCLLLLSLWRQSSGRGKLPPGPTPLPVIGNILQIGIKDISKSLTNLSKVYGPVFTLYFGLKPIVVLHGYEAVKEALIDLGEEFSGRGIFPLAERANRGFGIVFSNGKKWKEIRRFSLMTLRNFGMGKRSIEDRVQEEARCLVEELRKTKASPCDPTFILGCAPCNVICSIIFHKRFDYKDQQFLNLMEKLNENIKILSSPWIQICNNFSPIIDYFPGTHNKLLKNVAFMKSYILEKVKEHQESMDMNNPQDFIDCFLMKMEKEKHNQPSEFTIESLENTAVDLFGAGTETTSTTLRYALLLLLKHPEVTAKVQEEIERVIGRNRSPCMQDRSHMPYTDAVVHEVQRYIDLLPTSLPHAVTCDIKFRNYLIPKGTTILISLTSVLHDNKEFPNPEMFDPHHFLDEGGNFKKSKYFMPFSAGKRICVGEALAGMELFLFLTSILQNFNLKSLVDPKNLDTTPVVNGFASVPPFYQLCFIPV

Turning to `CC(C)(C)OC(=O)/N=C(\NC(=O)OC(C)(C)C)Nc1cc(C#N)ccn1` [SB023], in data set [1], the inhibition at 75 µM stood at 34.7%. The IC50 was 92.5 µM in data set [1] and over 100 µM on CYP2C9. The inhibition at 200 µM in the data set with P. aeruginosa PAO1 (setting [2]) was 0%; in the data set on P. aeruginosa PAO1 (setting [3]), 97%. The MIC is over 200 µM in the data set with P. aeruginosa PAO1 (LB medium, read-out: MIC LB) and 13.5 µM (≈ 4.88 µg/mL) in the data set with P. aeruginosa PAO1 (setting [4]). Further, in the data set on CYP450 isozymes, the “inhibitory drug–drug interactions (CYP450 inhibition)” value (from here on “inhibitory drug–drug interactions”) is “no major inhibitory drug–drug interactions”.
Consider `CC(C)(C)OC(=O)/N=C(\NC(=O)OC(C)(C)C)Nc1cc(Cl)ccn1` [SB002], for which, in data set [1], the inhibition at 75 µM stood at 100%. The concentration for half-maximal inhibition (IC50) was 13.3 µM in data set [1] and over 100 µM at CYP2C9. The results for the inhibition at 200 µM with P. aeruginosa PAO1 (setting [2]) and in the data set on P. aeruginosa PAO1 (setting [3]) were 0% and 100%, respectively. For the same compound, the MIC is over 200 µM with P. aeruginosa PAO1 (LB medium, read-out: MIC LB) and 1.6 µM (≈ 0.593 µg/mL) with P. aeruginosa PAO1 (setting [4]). Further, the “inhibitory drug–drug interactions” value in the data set on CYP450 isozymes is listed as “no major inhibitory drug–drug interactions”.
For the compound `Nc1cc(Cl)ccn1` [Compound 2-AP, 2-amino-4-chloropyridine, reference compound], the inhibition at 75 µM in data set [1] turned out to be 21%. The IC50 in data set [1] is over 75 µM; at CYP2C9, over 100 µM. For the same compound, the values for the inhibition at 200 µM with P. aeruginosa PAO1 (setting [2]) and in the data set with P. aeruginosa PAO1 (setting [3]) were 0% and 8%, respectively. In addition, the MIC in the data set on P. aeruginosa PAO1 (LB medium, read-out: MIC LB) was over 200 µM; in the data set on P. aeruginosa PAO1 (setting [4]), over 200 µM. For the same compound, the “inhibitory drug–drug interactions” value in the data set on CYP450 isozymes was “no major inhibitory drug–drug interactions”.

The record behind these values is article PMC7177833, “2-Aminopyridine Analogs Inhibit Both Enzymes of the Glyoxylate Shunt in Pseudomonas aeruginosa” (International Journal of Molecular Sciences, 2020).
